# Laboratory results reported in patent US9630977B2, “Cephalosporin derivatives and pharmaceutical compositions thereof” (Legochem Biosciences, Inc., priority 2011, dated 2017).
# Where two headings read alike, the source gives them in different places.
# Experiments:
# Assay in all cases: In vitro antibacterial activity test (broth microdilution)
# Assay type in all cases: cell-based
# E. cloacae β19 = details: Enterobacter cloacae
# Experimental: (§1) To evaluate antibacterial activity of each of the compounds of Examples 1 to 68, in vitro antibacterial activity test was performed.
# (§2) The in vitro antibacterial activity was evaluated by measuring MIC90 (ug/mL) of each of the compounds of Examples 1 to 68, which is defined as the lowest concentration of an antibiotic that will inhibit the visible growth of 90% of microorganisms after incubation as compared with a control group to which the antibiotic is not treated. MIC90 values were measured by the broth microdilution method developed by the Clinical and Laboratory Standards Institute (CLSI) (see CLSI M7-A5, Methods for Dilution Antimicrobial Susceptibility Test for Bacteria that Grow Aerobically-Fifth Edition (2000): CLSI, Villanova, Pa.).
# (§3) In vitro antibacterial activity was measured with respect to the following 19 clinical isolates: M. catarrhalis; P. aeruginosa (5 strains); K. pneumoniae (6 strains); A. baumannii (3 strains); E. coli (2 strains); A. calcoaceticus; and E. cloacae.
# (§4) Test compounds each (the cephalosporin derivative compounds prepared in Examples 1 to 68) were dissolved in DMSO at the concentration of 10,240 ug/mL, were diluted by two fold with DMSO, and then were diluted by twenty fold with sterilized distilled water. The final concentration in the antibacterial activity test was in the range of […] to 128 ug/mL, and the final concentration of DMSO used as an adjuvant was 2.5% (V/V).
# A. baumannii 46 = tested on: A. baumannii 46
# Experimental: as §1, §2, §3, §4
# K. pneumoniae β14 = details: Klebsiella pneumoniae
# Experimental: as §1, §2, §3, §4
# A. baumannii 52 = details: Acinetobacter baumannii
# Experimental: as §1, §2, §3, §4
# A. baumannii 49 = tested on: A. baumannii 49
# Experimental: as §1, §2, §3, §4
# P. aeruginosa 43 = details: Pseudomonas aeruginosa; P. aeruginosa 43; read-out: MIC90
# Experimental: as §1, §2, §3, §4
# P. aeruginosa 40 = tested on: P. aeruginosa 40
# Experimental: as §1, §2, §3, §4
# P. aeruginosa 37 = details: Pseudomonas aeruginosa, 37, P. aeruginosa 37
# Experimental: as §1, §2, §3, §4
# P. aeruginosa 6065Y = details: Pseudomonas aeruginosa
# Experimental: as §1, §2, §3, §4
# K. pneumoniae 2011E = details: Klebsiella pneumoniae, 2011E
# Experimental: as §1, §2, §3, §4
# [1] = tested on: A. calcoaceticus ATCC15473; details: Acinetobacter calcoaceticus
# Experimental: as §1, §2, §3, §4
# E. coli AG100 = details: Escherichia coli
# Experimental: as §1, §2, §3, §4
# M. catarrhalis 2524 = details: Moraxella catarrhalis; M. catarrhalis 2524; read-out: MIC90
# Experimental: as §1, §2, §3, §4
# E. coli β4 = details: Escherichia coli
# Experimental: as §1, §2, §3, §4
# P. aeruginosa 1912E = details: Pseudomonas aeruginosa, 1912E
# Experimental: as §1, §2, §3, §4
# [2] = Acinetobacter baumannii, A. baumannii 46, read-out: MIC90
# [3] = A. baumannii 52, read-out: MIC90
# [4] = Acinetobacter baumannii, A. baumannii 49, read-out: MIC90
# [5] = Pseudomonas aeruginosa, 40, P. aeruginosa 40, read-out: MIC90
# [6] = K. pneumoniae 2011E, read-out: MIC90
# [7] = A. calcoaceticus ATCC15473, read-out: MIC90
# [8] = AG100, E. coli AG100, read-out: MIC90
MIC90 (E. cloacae β19; read-out: MIC90),MIC90 (A. baumannii 46; [2]),MIC90 (K. pneumoniae β14; read-out: MIC90),MIC90 (A. baumannii 52; [3]),MIC90 (A. baumannii 49; [4]),MIC90 (P. aeruginosa 43),MIC90 (P. aeruginosa 40; [5]),MIC90 (P. aeruginosa 37; read-out: MIC90),MIC90 (P. aeruginosa 6065Y; read-out: MIC90),MIC90 (K. pneumoniae 2011E; [6]),"MIC90 [1, 7]",MIC90 (E. coli AG100; [8]),MIC90 (M. catarrhalis 2524),MIC90 (E. coli β4; read-out: MIC90),MIC90 (P. aeruginosa 1912E; read-out: MIC90),Structure (SMILES),other results
16 µg/mL,16 µg/mL,32 µg/mL,> 128 µg/mL,> 128 µg/mL,1 µg/mL,2 µg/mL,2 µg/mL,4 µg/mL,2 µg/mL,4 µg/mL,1 µg/mL,0.25 µg/mL,2 µg/mL,1 µg/mL,CN(CCNc1c[n+](CC2=C(C(=O)[O-])N3C(=O)[C@@H](NC(=O)/C(=N\OC(C)(C)C(=O)O)c4csc(N)n4)C3SC2)cnc1N)C(=O)c1ccc(O)c(O)c1 (some centres unmarked) [Compound 27],
> 128 µg/mL,4 µg/mL,64 µg/mL,> 128 µg/mL,> 128 µg/mL,8 µg/mL,4 µg/mL,4 µg/mL,16 µg/mL,4 µg/mL,2 µg/mL,0.25 µg/mL,1 µg/mL,4 µg/mL,2 µg/mL,Cn1cc(O)c(=O)cc1C(=O)NCCNc1c[n+](CC2=C(C(=O)[O-])N3C(=O)[C@@H](NC(=O)/C(=N\OC(C)(C)C(=O)O)c4csc(N)n4)C3SC2)cnc1N (some centres unmarked) [Compound 2],
4 µg/mL,1 µg/mL,16 µg/mL,128 µg/mL,> 128 µg/mL,0.5 µg/mL,0.5 µg/mL,2 µg/mL,0.5 µg/mL,0.5 µg/mL,1 µg/mL,0.125 µg/mL,,2 µg/mL,1 µg/mL,CC(C)(O/N=C(\C(=O)N[C@@H]1C(=O)N2C(C(=O)[O-])=C(C[n+]3cnc(N)c(NCCNC(=O)c4ccc(O)c(O)c4)c3)CSC12)c1csc(N)n1)C(=O)O (some centres unmarked) [Compound 30],
128 µg/mL,8 µg/mL,8 µg/mL,> 128 µg/mL,> 128 µg/mL,4 µg/mL,32 µg/mL,128 µg/mL,128 µg/mL,1 µg/mL,8 µg/mL,1 µg/mL,,16 µg/mL,8 µg/mL,CNc1nc[n+](CC2=C(C(=O)[O-])N3C(=O)[C@@H](NC(=O)/C(=N\OC(C)(C)C(=O)O)c4csc(N)n4)C3SC2)cc1N (some centres unmarked) [Compound 39],

# Further lines, the compound ahead of its results:
Structure (SMILES),MIC90 (E. cloacae β19; read-out: MIC90),MIC90 (A. baumannii 46; [2]),MIC90 (K. pneumoniae β14; read-out: MIC90),MIC90 (A. baumannii 52; [3]),MIC90 (A. baumannii 49; [4]),MIC90 (P. aeruginosa 43),MIC90 (P. aeruginosa 40; [5]),MIC90 (P. aeruginosa 37; read-out: MIC90),MIC90 (P. aeruginosa 6065Y; read-out: MIC90),MIC90 (K. pneumoniae 2011E; [6]),"MIC90 [1, 7]",MIC90 (E. coli AG100; [8]),MIC90 (M. catarrhalis 2524),MIC90 (E. coli β4; read-out: MIC90),MIC90 (P. aeruginosa 1912E; read-out: MIC90),other results
CC(C)(O/N=C(\C(=O)N[C@@H]1C(=O)N2C(C(=O)[O-])=C(C[n+]3cnc(N)c(NCCN)c3)CSC12)c1csc(N)n1)C(=O)O (some centres unmarked) [Compound 37],,,,,,,,,,,,,,,,"MIC90 (E. cloacae β19): 16 µg/mL; MIC90 (A. baumannii 46; Acinetobacter baumannii, 46, A. baumannii 46): 4 µg/mL; MIC90 (K. pneumoniae β14): 16 µg/mL; MIC90 (A. baumannii 52; 52): 64 µg/mL; MIC90 (A. baumannii 49; Acinetobacter baumannii, 49, A. baumannii 49): 128 µg/mL; MIC90 (P. aeruginosa 40; Pseudomonas aeruginosa, 40): 4 µg/mL; MIC90 (P. aeruginosa 37): 16 µg/mL; MIC90 (P. aeruginosa 6065Y; 6065Y): 8 µg/mL; MIC90 (K. pneumoniae 2011E): 8 µg/mL; MIC90 ([1]; ATCC15473, A. calcoaceticus ATCC15473): 1 µg/mL; MIC90 (E. coli AG100; AG100): 4 µg/mL; MIC90 (E. coli β4): 4 µg/mL; MIC90 (P. aeruginosa 1912E): 4 µg/mL"
CC(C)(O/N=C(\C(=O)N[C@@H]1C(=O)N2C(C(=O)[O-])=C(C[n+]3cnc(N)c(NC(=O)CNC(=O)c4ccc(O)c(O)c4)c3)CSC12)c1csc(N)n1)C(=O)O (some centres unmarked) [Compound 32],128 µg/mL,1 µg/mL,64 µg/mL,16 µg/mL,32 µg/mL,0.5 µg/mL,4 µg/mL,4 µg/mL,4 µg/mL,1 µg/mL,0.5 µg/mL,< 0.0625 µg/mL,0.25 µg/mL,8 µg/mL,2 µg/mL,
CC(C)(O/N=C(\C(=O)N[C@@H]1C(=O)N2C(C(=O)[O-])=C(C[n+]3cnc(N)c(NC(=O)CCNC(=O)c4ccc(O)c(O)c4)c3)CSC12)c1csc(N)n1)C(=O)O (some centres unmarked) [Compound 28],128 µg/mL,8 µg/mL,64 µg/mL,16 µg/mL,> 128 µg/mL,4 µg/mL,16 µg/mL,8 µg/mL,16 µg/mL,8 µg/mL,1 µg/mL,> 128 µg/mL,8 µg/mL,8 µg/mL,32 µg/mL,
